Drawing on ChEMBL document CHEMBL1201862, “PubChem BioAssay data set” (2004), this text covers AC50, EC50 and CC50 for 38 compounds.

SMILES strings stand for the structures. Calls of active or inactive are those of the source.

The target of experiment [1] is Cytochrome P450 2C19 (Homo sapiens, UniProt P33261). Nature of the experiment: Cytochrome panel assay with activity outcomes. Panel member name: p450-cyp2c19 Compounds with AC50 equal or less than 10 uM are considered active. The format is functional. To be noted: read-out: AC50.
Experiment [2] concerns the target T1, Cytochrome P450 1A2 (Homo sapiens, UniProt P05177).
T1 sequence (P05177 whole entry): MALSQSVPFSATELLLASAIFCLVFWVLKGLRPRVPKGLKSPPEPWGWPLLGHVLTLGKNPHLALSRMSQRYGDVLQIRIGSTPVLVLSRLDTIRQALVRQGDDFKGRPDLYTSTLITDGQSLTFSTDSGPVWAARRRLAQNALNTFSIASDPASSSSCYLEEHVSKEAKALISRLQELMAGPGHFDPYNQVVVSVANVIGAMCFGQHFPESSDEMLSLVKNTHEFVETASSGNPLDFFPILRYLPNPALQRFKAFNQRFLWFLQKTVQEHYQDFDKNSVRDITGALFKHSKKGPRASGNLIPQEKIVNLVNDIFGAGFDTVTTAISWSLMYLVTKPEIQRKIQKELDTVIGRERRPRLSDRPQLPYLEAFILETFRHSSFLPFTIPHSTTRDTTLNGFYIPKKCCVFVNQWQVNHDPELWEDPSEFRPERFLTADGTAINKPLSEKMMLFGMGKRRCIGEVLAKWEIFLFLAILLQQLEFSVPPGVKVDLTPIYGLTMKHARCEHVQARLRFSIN

For experiment [3], the target named is Cytochrome P450 2C9 (Homo sapiens, UniProt P11712).
Experiment [4] is described as follows: Trypanosoma cruzi growth suppression in host cells – NIH3T3 host cells, beta-gal luminescence, confirmation (AID 2044).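 Further: intracellular parasites grown in NIH/3T3 mouse fibroblasts as host cells; luminescent beta-galactosidase reporter signal from transgenic T. cruzi replicating inside host cells; inhibitors lower the luminescence signal.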 The experiment is classed as functional, cell-based.
Experiment [5] can be described thus: NIH3T3 cell viability loss – ATP luminescence, mouse fibroblasts, counter-screen, dose response (AID 2010).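 Further: cells exposed to compound for about 90 hours before reading.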 The format is functional, cell-based. (A counterscreen serves to expose hits that act by an unwanted route or on another target.)
The subject of experiment [6] is INS1. Nature of the experiment: INS-1E survival protection against cytokine death – cell-based, luminescence, retest, dose response (AID 449756).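 Further: cell death triggered by IL-1 beta plus TNF-alpha plus IFN-gamma mixture; protective hits raise ATP signal compared with cytokine alone wells.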 The experiment is classed as functional. To be noted: Rattus norvegicus.
The nature of experiment [7]: luciferase reporter signal suppression in cells – H4 neuroglioma cells, luminescence, dose response (AID 1990). The experiment is classed as functional, cell-based.
Experiment [8] in a line: Luminescence Cell-Based Dose Response HTS to Identify Inhibitors of 5'UTR Stem-Loop Driven Prion Protein mRNA Translation in H4 Neuroglioblastoma Cells. [Related pubchem assays: 1827 (Project Summary), 1813 (Primary HTS)]. The format is functional.
Experiment [9] in a line: alpha-synuclein stem-loop luciferase translation blockers – H4 neuroglioma cells, luminescence, confirmation (AID 1988). The experiment is classed as functional, cell-based.
In experiment [10] the target is Cytochrome P450 3A4 (Homo sapiens, UniProt P08684).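 Further: CYP3A4 tested as one member of a cytochrome P450 panel screen.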
Experiment [11] in a line: P. falciparum Dd2 growth inhibitors, dose response, SYBR Green, cherry-picked samples (AID 1159567). The format is functional, cell-based.
Experiment [12] can be described thus: cells. The experiment is classed as functional, cell-based.
The nature of experiment [13]: cells. The experiment is classed as functional, cell-based. This is another data set of the same source.
Experiment [14] is described as follows: Luminescence Cell-Based Dose Response HTS to Identify Activators of Luciferase Translation or Activity in H4 […] Cells. [Related pubchem assays: 1829 (Project Summary), 1814 (Primary HTS)]. The experiment is classed as functional.
The target of experiment [15] is Cytochrome P450 2D6 (Homo sapiens, UniProt P10635).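 Further: CYP2D6 member of a cytochrome P450 panel assay.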
The nature of experiment [16]: viability of uninfected HEp-2 cells – cell-based, HTS, cytotoxicity control for RSV inhibitor project, dose response (AID 2410). To be noted: human respiratory syncytial virus. The experiment is classed as functional.
Experiment [17] in a line: viability of PTEN-deleted HCT116 cells – cell-based, HCT116 PTEN knockout, dose response (AID 1047).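 Further: HCT116 colon tumor cells with PTEN knocked out; cells exposed to compound for 60 hours before readout; potency for loss of cell viability measured by luminescence.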 The experiment is classed as functional.

Chain of Cytochrome P450 2C9 (P11712 whole entry): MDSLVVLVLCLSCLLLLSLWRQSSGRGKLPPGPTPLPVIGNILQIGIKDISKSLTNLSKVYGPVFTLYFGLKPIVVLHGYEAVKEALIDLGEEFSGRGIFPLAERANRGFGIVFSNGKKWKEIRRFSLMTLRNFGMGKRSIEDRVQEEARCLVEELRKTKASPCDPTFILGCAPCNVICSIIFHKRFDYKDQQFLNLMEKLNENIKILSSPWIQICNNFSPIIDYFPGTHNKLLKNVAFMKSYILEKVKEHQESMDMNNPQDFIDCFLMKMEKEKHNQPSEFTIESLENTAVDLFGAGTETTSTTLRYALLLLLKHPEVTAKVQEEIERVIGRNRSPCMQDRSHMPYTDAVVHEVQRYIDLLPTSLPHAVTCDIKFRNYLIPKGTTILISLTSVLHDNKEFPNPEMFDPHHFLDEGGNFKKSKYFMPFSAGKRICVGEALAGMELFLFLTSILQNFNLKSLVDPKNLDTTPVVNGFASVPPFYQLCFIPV
Chain of Cytochrome P450 2D6 (P10635 whole entry): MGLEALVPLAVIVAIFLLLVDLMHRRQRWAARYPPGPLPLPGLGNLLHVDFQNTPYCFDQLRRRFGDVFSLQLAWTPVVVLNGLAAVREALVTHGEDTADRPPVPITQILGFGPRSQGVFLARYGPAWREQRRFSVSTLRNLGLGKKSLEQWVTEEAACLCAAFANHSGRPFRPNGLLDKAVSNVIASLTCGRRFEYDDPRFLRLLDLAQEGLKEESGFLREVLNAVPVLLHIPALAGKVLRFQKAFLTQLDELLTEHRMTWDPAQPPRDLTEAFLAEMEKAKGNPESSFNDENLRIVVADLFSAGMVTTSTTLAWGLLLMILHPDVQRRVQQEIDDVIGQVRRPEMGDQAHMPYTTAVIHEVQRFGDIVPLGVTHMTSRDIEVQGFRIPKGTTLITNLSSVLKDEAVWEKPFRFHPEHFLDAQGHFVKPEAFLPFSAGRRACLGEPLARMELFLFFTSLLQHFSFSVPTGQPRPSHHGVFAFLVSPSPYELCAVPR
Chain of Cytochrome P450 2C19 (P33261 whole entry): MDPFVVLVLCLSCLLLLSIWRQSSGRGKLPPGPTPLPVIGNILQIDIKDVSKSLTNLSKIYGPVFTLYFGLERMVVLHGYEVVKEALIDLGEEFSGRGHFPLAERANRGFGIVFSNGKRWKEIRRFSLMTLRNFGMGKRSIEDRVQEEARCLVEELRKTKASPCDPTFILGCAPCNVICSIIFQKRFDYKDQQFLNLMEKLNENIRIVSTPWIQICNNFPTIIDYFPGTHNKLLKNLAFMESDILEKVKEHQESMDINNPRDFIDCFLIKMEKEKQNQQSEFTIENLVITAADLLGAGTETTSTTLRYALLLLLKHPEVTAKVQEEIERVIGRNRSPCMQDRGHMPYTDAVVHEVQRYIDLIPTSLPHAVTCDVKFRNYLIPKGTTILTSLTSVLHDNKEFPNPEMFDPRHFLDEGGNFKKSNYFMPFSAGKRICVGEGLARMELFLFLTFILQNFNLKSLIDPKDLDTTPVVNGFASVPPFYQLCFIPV
Chain of Cytochrome P450 3A4 (P08684 whole entry): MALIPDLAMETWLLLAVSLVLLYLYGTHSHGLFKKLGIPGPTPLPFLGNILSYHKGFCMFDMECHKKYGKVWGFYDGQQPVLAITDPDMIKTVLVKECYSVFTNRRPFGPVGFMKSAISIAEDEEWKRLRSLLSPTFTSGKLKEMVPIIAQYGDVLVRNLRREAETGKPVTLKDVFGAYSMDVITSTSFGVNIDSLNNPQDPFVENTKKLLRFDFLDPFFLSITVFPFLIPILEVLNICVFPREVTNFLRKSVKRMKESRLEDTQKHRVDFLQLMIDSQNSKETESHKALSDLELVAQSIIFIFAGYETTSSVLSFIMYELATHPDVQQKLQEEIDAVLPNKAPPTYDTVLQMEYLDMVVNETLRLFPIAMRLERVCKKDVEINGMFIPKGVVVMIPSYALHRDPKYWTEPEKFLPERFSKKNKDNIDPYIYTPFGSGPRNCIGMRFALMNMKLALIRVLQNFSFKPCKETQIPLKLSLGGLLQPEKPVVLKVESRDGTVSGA

In the case of `c1ccc(-c2csc3ncn4cnnc4c23)cc1`, the AC50 (usually the concentration at which the activity in the assay is half-maximal) was 11.2 µM (inconclusive) in experiment [1], 0.251 µM (inconclusive) in experiment [2] and 20 µM (inconclusive) in experiment [3].
Turning to `Cc1ccc(C[n+]2cccc(-c3ccccc3)c2)c(C)c1`, the EC50 (in general, the concentration giving half of the maximal effect) in experiment [4] was 552 nM (active); in experiment [5], 11.9 µM (active). In addition, the AC50 in [6] was 4.24 µM (active).
`COc1ccccc1N1CCN(Cc2c[nH]c3ccccc23)CC1`: the EC50 in [7] was > 120 µM (not active); in experiment [8], 25.3 µM (active); in experiment [9], > 120 µM (not active); in experiment [4], 2100 nM (active); in experiment [5], > 60 µM (not active).
Take `Cc1ccc(Oc2nc(-c3ccccc3)ncc2S(C)(=O)=O)cc1`: the AC50 in [1] was 3.16 µM (inconclusive); in experiment [10], 14.1 µM (inconclusive).
Take `CO[C@@H]1CN(C)C(=O)c2ccc(NC(=O)c3cc(C)on3)cc2OC[C@@H](C)N(S(=O)(=O)c2cccc(C)c2)C[C@H]1C`: the AC50 in experiment [11] is 4.07 µM (active).
With `CN(C)C(=O)c1ccc(NC(=O)c2cccc(S(=O)(=O)N3CCCCCC3)c2)cc1`, the AC50 in experiment [6] is > 260 µM (inactive).
Regarding `CCC(=O)N1CC2(C1)CN(S(=O)(=O)c1ccccc1)[C@@H](CO)c1[nH]c3cc(OC)ccc3c12`, the AC50 in experiment [11] is 5.43 µM (active).
`Cc1ccc(C(=O)C2C(=O)c3ccccc3C2=O)cc1`: the concentration at half-maximal activity (AC50) was 22.4 µM (inconclusive) in experiment [1] and 25.1 µM (inconclusive) in [2].
In the case of `C[C@@H]1CN([C@@H](C)CO)C(=O)c2c(c3ccccc3n2C)-c2ccccc2CO[C@H]1CN(C)C(=O)Nc1ccccc1C(F)(F)F`, the AC50 in [11] is 4.33 µM (active).
Still for that read-out and setting: in the case of `N#Cc1ccc(-c2ccc([C@H]3[C@@H](CO)N4C(=O)CN(C(=O)Cc5ccccc5)C[C@@H]34)cc2)cc1` it was 18.1 µM (active).
For the compound `CCOc1cc(/C=N/NC(=O)c2cccnc2)ccc1OCc1ccc(C(=O)OC)o1`, the concentration for a half-maximal effect (EC50) in experiment [12] and in experiment [13] was > 350 µM (not active) throughout.
As to `COC(=O)[C@H](CC(C)C)N(Cc1ccccc1)S(=O)(=O)N(Cc1ccccc1)[C@@H](CC(C)C)C(=O)OC`, the AC50 in [6] was 13.7 µM (active).
In the case of `Cc1ccc(-c2csc3nc(SCC(=O)N(C)C)n(Cc4ccccc4)c(=O)c23)cc1`, the EC50 in experiment [12] and in [13] was > 350 µM (not active) each time.
Consider `Cc1ccc(-n2c(SCC(=O)N3CCOCC3)nnc2-c2cccnc2)cc1`, for which the AC50 in experiment [1] was 22.4 µM (inconclusive); in [2] it was 10 µM (inconclusive); in experiment [10], 10 µM (inconclusive); in [3], 17.8 µM (inconclusive).
In the case of `O=C(NNC(=O)c1cccnc1SCc1cccc([N+](=O)[O-])c1)c1ccc(F)cc1`, the AC50 in experiment [6] is 7.02 µM (active).
For the compound `COc1ccc(F)cc1CSc1nnnn1-c1ccc(O)cc1`, the EC50 in [12] and in experiment [13] was > 350 µM (not active) throughout.
With `CCN(CCN(C)C)C(=O)C1CCN(S(=O)(=O)c2c(C)noc2/C=C/c2ccccc2F)CC1`, the EC50 in experiment [12] was > 350 µM (not active); in experiment [13], 21.2 µM (active).
Take `CCc1ccc(-c2ccc(C(=O)C(F)(F)F)[nH]2)cc1`: the EC50 in experiment [14] was 190 nM (active). In addition, the AC50 in experiment [1] is 5.01 µM (inconclusive).
Turning to `COc1ccc(C(=O)Nc2ccc(C(=O)NCCc3ccc(OC)c(OC)c3)cc2)cc1`, the EC50 in experiment [12] and in [13] was > 350 µM (not active) each time.
Turning to `CO[C@H]1CN(C)C(=O)c2cc(NC(=O)c3nc4ccccc4s3)ccc2OC[C@H](C)NC[C@@H]1C`, the AC50 in experiment [11] is 13.5 µM (active).
Regarding `CC(N=C(S)NC1CCCCC1)c1ccc(C(C)(C)C)cc1` (stereo unspecified), the AC50 in experiment [6] is 6.14 µM (active).
Regarding `Cn1c(=O)c(CCc2ccccc2)nc2cncnc21`, the AC50 in experiment [1] was 39.8 µM (inconclusive); in experiment [10], 15.8 µM (inconclusive); in experiment [3], 31.6 µM (inconclusive).
As to `COc1ccc(CC(NC(C)=O)C(=O)NC2CCN(C(=O)Nc3ccc(Cl)cc3)CC2)cc1OC` (stereo unspecified), the EC50 in experiment [12] and in experiment [13] was > 350 µM (not active) throughout. Moreover, in experiment [3], the AC50 was 12.6 µM (inconclusive).
Consider `COc1cccc(C2=NOC(C(=O)NCc3ccccn3)C2)c1` (stereo unspecified), for which the AC50 is 25.1 µM (inconclusive) in [1] and 15.8 µM (inconclusive) in experiment [10].
In the case of `CS(=O)(=O)Nc1cccc(-c2cc(NCc3ccccc3)ncn2)c1`, the figures for the AC50 in experiment [1] and in experiment [15] were 39.8 µM (inconclusive) and 31.6 µM (inconclusive), respectively.
As for `C[C@@H]1CN([C@@H](C)CO)C(=O)c2cccc(NC(=O)c3cnccn3)c2O[C@@H]1CN(C)Cc1ccc(C(F)(F)F)cc1`, the AC50 in experiment [11] was 9.12 µM (active).
For the compound `Cc1ccc(-n2c(SCC(=O)NCCC3=CCCCC3)nc3nnc(C)c-3c2N)cc1Cl`, the EC50 was 23 µM (active) in experiment [7], 75.9 µM (active) in experiment [8] and > 120 µM (not active) in [9].
For the compound `CCN(CC)C(=O)CCCOc1ccc(Cl)cc1Cl`, in experiment [16], the CC50 (usually the concentration giving 50% cytotoxicity) is 22.1 µM (active). Besides, the EC50 in experiment [17] is 137 µM (active).
Turning to `NCCSCCc1ccccc1`, the AC50 in [1] and in [15] was 3.16 µM (inconclusive) throughout.
With `CCCNC(=O)c1ccc(N2CCC3(CC2)CC(c2ccccc2)=NO3)c(NC(=O)c2ccccc2)c1`, the EC50 in experiment [7] was 18.7 µM (active); in experiment [8], > 120 µM (not active); in experiment [9], 12.7 µM (active).
The like results for `CC(C)(C)NC(=O)N1c2ccccc2Sc2ccccc21` were, in that order, 15.3 µM (active), > 120 µM (not active) and 112 µM (active).
Take `CN1C(=O)C(=C(N)COc2ccccc2)C(=O)N(C)C1=O`: the AC50 in experiment [1] was 15.8 µM (inconclusive); in experiment [3] it was 14.1 µM (inconclusive).
Consider `COc1cc2c(cc1OC)-c1c/c(=N/c3c(C)cc(C)cc3C)n(C)c(=O)n1CC2`, for which the AC50 in experiment [1] and in [15] was 31.6 µM (inconclusive) throughout.
On to `OCc1cccc[n+]1CCc1ccccc1`, for which the results for the EC50 in [7], in [8] and in experiment [9] were > 120 µM (not active), 48.4 µM (active) and > 120 µM (not active), respectively.
For the compound `Clc1c(CSc2nc3ccccc3o2)nc2sccn12`, the EC50 in experiment [12] is > 350 µM (not active); in experiment [13], 21 µM (active).
The matching figures for `CCC1CCCCN1CCCNC(=O)C1CCN(c2nnc(-n3cccc3)s2)CC1` (stereo unspecified): > 350 µM (not active) and > 350 µM (not active).
Consider `COCCn1c(=O)c2c(nc3n2CC(C)CN3CCc2ccccc2)n(C)c1=O` (stereo unspecified), for which the EC50 in experiment [7], in experiment [8] and in experiment [9] was > 120 µM (not active) throughout.
On to `COc1cccc(Cn2c(=O)c(-c3ccccc3)nc3cnc(N4CCNCC4)nc32)c1`, for which the AC50 in experiment [1] was 39.8 µM (inconclusive); in experiment [15], 10 µM (inconclusive); in experiment [2], 3.16 µM (inconclusive).
